Assay results from a compilation of properties of binary mixtures (doi:10.2298/jsc190413047v).

Assay: xn = mol fraction of the nth substance listed
Settings: 100 kPa

O=C1CCCCO1 + CCCC[n+]1ccn(C)c1.O=S(=O)([N-]S(=O)(=O)C(F)(F)F)C(F)(F)F
electrical conductivity [S/m]
Settings	293.15 K	298.15 K	303.15 K	308.15 K	313.15 K	318.15 K	323.15 K
x2 = 0.0532	0.167	0.18	0.195	–	0.225	0.244	–
x2 = 0.1004	0.395	–	–	–	0.553	0.595	0.636
x2 = 0.1504	–	0.658	–	0.779	0.848	0.924	–
x2 = 0.1999	0.655	0.725	0.797	0.87	0.952	–	–
x2 = 0.2988	0.67	0.744	0.822	–	0.984	1.07	1.16
x2 = 0.4006	–	–	0.741	0.818	0.905	0.99	1.08
x2 = 0.5005	0.522	–	0.669	0.749	0.827	0.92	1.01
x2 = 0.5999	0.411	–	0.559	0.637	0.72	0.815	0.928
x2 = 0.7214	0.385	0.453	0.532	–	0.697	0.789	–
x2 = 0.8475	–	0.418	0.495	0.575	0.658	0.754	0.858
x2 = 0.9003	0.34	0.412	0.484	0.563	0.646	0.745	0.846

O=C1CCCO1 + CCCC[n+]1ccn(C)c1.O=S(=O)([N-]S(=O)(=O)C(F)(F)F)C(F)(F)F
Settings	electrical conductivity [S/m]	viscosity [mPa·s]
293.15 K, x1 = 0.1005	0.347	46.39
293.15 K, x1 = 0.1984	0.388	37.16
293.15 K, x1 = 0.4001	0.519	23.42
293.15 K, x1 = 0.5021	0.637	17.37
293.15 K, x1 = 0.5979	0.797	12.26
293.15 K, x1 = 0.7021	1.13	8.54
293.15 K, x1 = 0.7999	1.34	5.53
293.15 K, x1 = 0.8995	1.34	3.49
293.15 K, x1 = 0.95	1.04	–
293.15 K, x1 = 1	0.001	1.92
298.15 K, x1 = 0.1005	0.428	38.33
298.15 K, x1 = 0.1984	0.469	30.92
298.15 K, x1 = 0.2992	0.546	24.97
298.15 K, x1 = 0.4001	0.618	19.75
298.15 K, x1 = 0.5979	0.928	10.7
298.15 K, x1 = 0.7021	1.29	7.58
298.15 K, x1 = 0.7999	1.5	5.04
298.15 K, x1 = 0.8496	1.53	–
298.15 K, x1 = 0.8995	1.48	3.26
298.15 K, x1 = 0.95	1.14	–
298.15 K, x1 = 1	0.001	1.73
298.15 K, x2 = 0.0151	0.444	–
303.15 K, x1 = 0.1005	0.501	31.8
303.15 K, x1 = 0.1984	0.552	25.69
303.15 K, x1 = 0.4001	0.72	16.68
303.15 K, x1 = 0.5021	0.853	12.76
303.15 K, x1 = 0.5979	1.05	9.32
303.15 K, x1 = 0.7021	1.43	6.67
303.15 K, x1 = 0.7999	1.65	4.55
303.15 K, x1 = 0.8496	1.69	–
303.15 K, x1 = 0.8995	1.61	2.97
303.15 K, x1 = 0.95	1.23	–
303.15 K, x1 = 1	0.001	1.63
303.15 K, x2 = 0.0151	0.477	–
308.15 K, x1 = 0.1005	0.586	26.88
308.15 K, x1 = 0.1984	0.642	21.98
308.15 K, x1 = 0.2992	0.745	17.9
308.15 K, x1 = 0.4001	0.825	14.35
308.15 K, x1 = 0.5021	0.981	11.04
308.15 K, x1 = 0.7021	1.63	6
308.15 K, x1 = 0.8995	1.75	2.76
308.15 K, x1 = 0.95	1.32	–
308.15 K, x2 = 0.0151	0.509	–
313.15 K, x1 = 0.1005	0.68	22.69
313.15 K, x1 = 0.2992	0.854	15.26
313.15 K, x1 = 0.4001	1	12.32
313.15 K, x1 = 0.5021	1.2	9.62
313.15 K, x1 = 0.7021	1.81	5.41
313.15 K, x1 = 0.7999	1.98	3.78
313.15 K, x1 = 0.8496	2.01	–
313.15 K, x1 = 0.8995	1.88	2.55
318.15 K, x1 = 0.1005	0.768	19.31
318.15 K, x1 = 0.1984	0.85	15.86
318.15 K, x1 = 0.2992	0.965	13.24
318.15 K, x1 = 0.4001	1.19	10.82
318.15 K, x1 = 0.5021	1.4	8.52
318.15 K, x1 = 0.5979	1.64	6.49
318.15 K, x1 = 0.7021	1.99	4.84
318.15 K, x2 = 0.0151	0.576	–
323.15 K, x1 = 0.1005	0.898	16.54
323.15 K, x1 = 0.1984	1.03	13.86
323.15 K, x1 = 0.2992	1.24	11.57
323.15 K, x1 = 0.4001	1.46	9.47
323.15 K, x1 = 0.5021	1.68	7.51
323.15 K, x1 = 0.5979	1.91	5.83
323.15 K, x1 = 0.7021	2.21	4.44
323.15 K, x1 = 0.8496	2.34	–
323.15 K, x1 = 0.8995	2.17	2.18
323.15 K, x1 = 0.95	1.62	–
323.15 K, x2 = 0.0151	0.609	–

CCCCCC[n+]1ccn(C)c1.O=S(=O)([N-]S(=O)(=O)C(F)(F)F)C(F)(F)F + O=C1CCCO1
electrical conductivity [S/m]
Settings	x2 = 0	x2 = 0.1076	x2 = 0.2973	x2 = 0.4956	x2 = 0.6996	x2 = 0.8001	x2 = 0.8456	x2 = 0.9001	x2 = 0.9493
293.15 K	0.176	0.21	–	0.47	0.819	1.07	1.13	–	–
298.15 K	0.221	–	0.362	0.556	0.932	1.19	1.25	1.23	–
303.15 K	–	0.319	0.431	–	1.05	1.31	1.36	–	0.896
308.15 K	–	–	–	0.751	1.17	1.44	1.49	–	0.968
313.15 K	0.398	–	–	0.863	–	1.57	–	1.57	1.04
318.15 K	0.467	0.539	–	0.979	1.46	1.71	–	1.69	–
323.15 K	–	–	–	1.11	1.61	–	–	1.8	1.17

CCCC[n+]1ccn(C)c1.O=S(=O)([N-]S(=O)(=O)C(F)(F)F)C(F)(F)F + O=C1CCCO1
x2 = 0
Settings	electrical conductivity [S/m]	viscosity [mPa·s]
293.15 K	0.337	62.1
308.15 K	0.552	33.65
313.15 K	0.64	28.28
318.15 K	0.733	23.91
323.15 K	0.835	20.64
